Source: ChEMBL document CHEMBL2417422, “Modulation of human neutrophils' oxidative burst by flavonoids” (Eur J Med Chem, 2013)
Calls of active or inactive are those of the source. No cut-off for these calls is given here.

Key:
Neutrophil [1] = experiment: Inhibition of oxidative burst in PMA-stimulated human neutrophils assessed as inhibition of H2O2-induced oxidation of amplex red up to 100 uM incubated for 5 mins prior to PMA challenge by fluorescence assay; assay type: functional
Neutrophil [2] = experiment: Inhibition of oxidative burst in PMA-stimulated human neutrophils assessed as inhibition of H2O2-induced oxidation of amplex red at 40 uM incubated for 5 mins prior to PMA challenge by fluorescence assay; assay type: functional
Neutrophil [3] = experiment: Inhibition of oxidative burst in PMA-stimulated human neutrophils assessed as inhibition of superoxide anion radical-induced lucigenin oxidation incubated for 5 mins prior to PMA challenge by chemiluminescence assay; assay type: functional, cell-based
Neutrophil [4] = experiment: Inhibition of oxidative burst in PMA-stimulated human neutrophils assessed as inhibition of ROS-induced luminol oxidation incubated for 5 mins prior to PMA challenge by chemiluminescence assay; assay type: functional, cell-based
[5] = Cytotoxicity against human neutrophils assessed as cell viability at 100 uM after 1 hr by trypan blue exclusion assay; assay type: cell-based, Neutrophil; conditions: read-out: Activity
Neutrophil [6] = experiment: Inhibition of oxidative burst in PMA-stimulated human neutrophils assessed as inhibition of HOCl-induced oxidation of APF after 6 mins by fluorescence assay; assay type: functional, cell-based; conditions: 0.1 h
[7] = target: T1, Myeloperoxidase (Homo sapiens) (UniProt P05164); experiment: Inhibition of MPO (unknown origin); conditions: concentration not given here
T1 sequence (whole entry): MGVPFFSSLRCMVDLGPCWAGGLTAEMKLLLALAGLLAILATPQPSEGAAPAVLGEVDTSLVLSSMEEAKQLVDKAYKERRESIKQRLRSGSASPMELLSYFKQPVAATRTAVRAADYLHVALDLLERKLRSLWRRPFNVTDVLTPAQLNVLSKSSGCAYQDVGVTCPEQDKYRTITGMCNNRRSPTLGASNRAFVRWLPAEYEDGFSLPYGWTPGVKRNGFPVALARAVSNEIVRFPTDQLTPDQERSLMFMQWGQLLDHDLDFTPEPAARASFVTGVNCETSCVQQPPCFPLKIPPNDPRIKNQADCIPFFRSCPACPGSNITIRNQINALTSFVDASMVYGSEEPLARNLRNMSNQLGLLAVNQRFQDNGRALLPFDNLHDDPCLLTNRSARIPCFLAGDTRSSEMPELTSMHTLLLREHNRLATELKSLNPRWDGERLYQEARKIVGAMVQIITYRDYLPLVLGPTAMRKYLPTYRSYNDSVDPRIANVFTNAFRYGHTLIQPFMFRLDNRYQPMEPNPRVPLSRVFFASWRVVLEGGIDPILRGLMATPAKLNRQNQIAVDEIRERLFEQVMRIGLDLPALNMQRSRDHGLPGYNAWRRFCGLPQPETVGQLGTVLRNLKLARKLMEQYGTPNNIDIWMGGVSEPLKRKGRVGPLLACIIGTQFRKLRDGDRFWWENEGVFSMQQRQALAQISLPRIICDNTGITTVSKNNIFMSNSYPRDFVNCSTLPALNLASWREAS

Neutrophil [8] = experiment: Inhibition of oxidative burst in PMA-stimulated human neutrophils assessed as inhibition of H2O2-induced oxidation of amplex red incubated for 5 mins prior to PMA challenge by fluorescence assay; assay type: functional, cell-based
Neutrophil [9] = experiment: Inhibition of oxidative burst in PMA-stimulated human neutrophils assessed as inhibition of superoxide anion radical-induced lucigenin oxidation up to 100 uM incubated for 5 mins prior to PMA challenge by chemiluminescence assay; assay type: functional
Neutrophil [10] = experiment: Inhibition of oxidative burst in PMA-stimulated human neutrophils assessed as inhibition of HOCl-induced oxidation of APF up to 100 uM after 6 mins by fluorescence assay; assay type: functional, cell-based
Neutrophil [11] = experiment: Inhibition of oxidative burst in PMA-stimulated human neutrophils assessed as inhibition of ROS-induced luminol oxidation up to 100 uM incubated for 5 mins prior to PMA challenge by chemiluminescence assay; assay type: functional
Neutrophil [12] = experiment: Inhibition of oxidative burst in PMA-stimulated human neutrophils assessed as inhibition of ROS-induced luminol oxidation at 25 uM incubated for 5 mins prior to PMA challenge by chemiluminescence assay; assay type: functional

| Compound | inhibition (INH) (Neutrophil [1]) [%] | inhibition at 40 µM (Neutrophil [2]) [%] | IC50 (Neutrophil [3]) [µM] | IC50 (Neutrophil [4]) [µM] | viability at 1 h, 100 µM [5] [%] | IC50 (Neutrophil [6]) [µM] | inhibition [7] [%] | IC50 (Neutrophil [8]) [µM] | inhibition (Neutrophil [8]) | inhibition (INH) (Neutrophil [9]) [%] | inhibition (Neutrophil [10]) | inhibition (INH) (Neutrophil [11]) [%] | inhibition at 25 µM (Neutrophil [12]) [%] |
| --- | --- | --- | --- | --- | --- | --- | --- | --- | --- | --- | --- | --- | --- |
| O=c1cc(-c2cccc(O)c2)oc2ccccc12 | <40 | 17 | 47 | 24 | > 98 |  |  |  |  |  |  |  |  |
| O=c1cc(-c2cccc(O)c2)oc2cc(O)cc(O)c12 | <40 |  | 15.8 | 10 | > 98 | 65.4 |  |  |  |  |  |  |  |
| O=C1CC(c2ccc(O)c(O)c2)Oc2cc(O)cc(O)c21 (racemic) |  |  | 15.5 | 18 | > 98 | 1.4 | 40 | 4 |  |  |  |  |  |
| O=c1cc(-c2ccc(O)cc2)oc2ccccc12 |  |  |  | 40.3 | > 98 |  |  |  | inactive | <40 |  |  |  |
| O=c1cc(-c2ccccc2)oc2cc(O)cc(O)c12 [CHRYSIN] |  |  | 9.59 | 53 | > 98 |  |  |  | inactive |  | inactive |  |  |
| O=c1cc(-c2ccc(O)cc2)oc2cc(O)cc(O)c12 [APIGENIN] |  |  | 7.7 | 24 | > 98 | 12.3 |  | 16.2 |  |  |  |  |  |
| O=c1cc(-c2cccc(O)c2)oc2cc(O)ccc12 |  |  | 34.8 | 37.4 | > 98 |  |  | 79.6 |  |  |  |  |  |
| O=c1cc(-c2ccc(O)c(O)c2)oc2cc(O)cc(O)c12 [LUTEOLIN] |  |  | 9.5 | 9.3 | > 98 | 0.9 |  | 4 |  |  |  |  |  |
| O=c1cc(-c2cccc(O)c2)oc2cccc(O)c12 | <40 | 20 | 32 | 14.5 | > 98 |  |  |  |  |  |  |  |  |
| O=c1cc(-c2ccccc2)oc2ccccc12 [FLAVONE] |  |  | 57 |  | > 98 | 64.9 |  |  | inactive |  |  | <40 |  |
| O=c1cc(-c2ccc(O)cc2)oc2cc(O)ccc12 | <40 |  | 26.9 |  | > 98 |  |  |  |  |  |  | <40 |  |
| O=C1c2c(O)cc(O)cc2O[C@H](c2ccc(O)c(O)c2)[C@H]1O [(+)-TAXIFOLIN] |  |  | 15.5 | 53.5 | > 98 | 15.3 | 40 | 41.3 |  |  |  |  |  |
| O=c1c(O)c(-c2ccc(O)c(O)c2)oc2cc(O)cc(O)c12 [QUERCETIN] |  |  | 11.3 | 26 | > 98 | 0.7 |  | 8 |  |  |  |  |  |
| O=c1cc(-c2ccc(O)cc2)oc2cccc(O)c12 | <40 | 20 | 67.8 | 18 | > 98 |  |  |  |  |  |  |  |  |
| O=c1cc(-c2ccc(O)c(O)c2)oc2ccccc12 |  |  | 8.1 | 3 | > 98 | 0.9 |  | 3.2 |  |  |  |  |  |
| O=C1CC(c2ccc(O)cc2)Oc2cc(O)cc(O)c21 (racemic) | <40 |  | 31 | 51.4 | > 98 |  |  |  |  |  |  |  |  |
| O=c1cc(-c2ccc(O)c(O)c2)oc2cccc(O)c12 |  |  | 4.9 | 1.6 | > 98 | 0.39 |  | 3.2 |  |  |  |  |  |
| NNC(=O)c1ccc(N)cc1 |  |  |  | 43.6 |  | 30.6 |  |  |  |  |  |  |  |
| O=c1cc(-c2ccccc2)oc2cccc(O)c12 [5-HYDROXYFLAVONE] |  |  | 96 |  | > 98 |  |  |  | inactive |  |  | <40 | 30.1 |
| COc1ccc(-c2cc(=O)c3c(O)cc(O)cc3o2)cc1 [ACACETIN] |  |  | 7 |  | > 98 |  |  |  | inactive |  | inactive | <40 | 26.7 |
| O=c1cc(-c2ccccc2)oc2cc(O)ccc12 [7-HYDROXYFLAVONE] | <40 |  | 33 |  | > 98 |  |  |  |  |  |  | <40 |  |
| COc1ccc(-c2cc(=O)c3c(O)cc(O)cc3o2)cc1O [DIOSMETIN] |  |  | 15 | 3.6 |  | 0.7 |  | 10.3 |  |  |  |  |  |
| O=c1cc(-c2ccc(O)c(O)c2)oc2cc(O)ccc12 |  |  | 14.7 | 13.5 | > 98 | 5.2 |  | 3.7 |  |  |  |  |  |
| COc1ccc(-c2cc(=O)c3c(O)cc(O)cc3o2)cc1OC | <40 |  | 16 | 57.6 | > 98 | 3.33 |  |  |  |  |  |  |  |
| COc1cc(-c2cc(=O)c3c(O)cc(O)cc3o2)ccc1O [CHRYSOERIOL] |  |  | 7.1 | 2.8 |  | 0.4 |  | 8.6 |  |  |  |  |  |
